# From patent publication US20140127185A1, “METHODS AND COMPOSITIONS USING NEUROPROTECTIVE STEROIDS AND THROMBOLYTIC AGENTS” (priority 2012, published 2014)
# Legend:
# claudin-5 [1] = experiment: Tight junction protein Western blot in vivo (ischemic cortices): claudin-5; design: species or system rat; conditions: 24 hours after ischemia, compared to stroke without tPA / with tPA
# Method: Peri-infarct cortical tissue is processed for protein analysis. Tissues are homogenized in T-per (Pierce, Rockford, Ill.) containing protease inhibitor cocktail (P8340, Sigma). Homogenates are centrifuged for 15 minutes at 13,000 g. 40 μg of total protein is separated on 8-12% gel and transferred onto polyvinylidene difluoride (Millipore, Mass., USA; PVDF) membranes at 300 mA for 2 hours. To measure the level of immunoglobulin, the membranes were incubated overnight at 4° C. with anti Rat IgG conjugated to biotin. bEND 3 cells are subjected to hypoxia/reperfusion for 9 hours and then lysed on ice in 100 μl of RIPA buffer. Cell lysated are boiled and then electrophoresed in 12% SDS-PAGE acrylamide gels, transferred onto PVDF membranes, and incubated for 1 hour in TBS-T (tris-buffered saline and 0.1% Tween 20) containing 5% bovine serum albumin (BSA). Membranes are then incubated overnight at 4° C. with primary antibodies against occludin (Invitrogen, Calif., USA; 1:1000), claudin-5 (Invitrogen; 1:1000), and ZO-1 (Invitrogen; 1:1000), washed in TBS-T, and incubated for 1 hour at room temperature with corresponding peroxidase-conjugated secondary antibodies (1:5000; KPL, Gaithersburg, Md.). All blots are stripped and re-incubated with β-actin antibodies (1:5000, Sigma) as a loading control. […] Intensity of the bands is measured by an Image Gauge version. […]
# bEND3 cells = experiment: Transendothelial electrical resistance (TEER) after hypoxia/reperfusion (H/R); type: cell-based, mouse; conditions: tPA 20 μ/ml; 6 hours hypoxia, 3 hours reoxygenation
# Method: (§1) An immortalized mouse brain endothelial cell line (bEND 3) is purchased from American Type Culture Collection (ATCC, VA, USA) and cultured in Dulbecco's modified Eagle Medium (DMEM, ATCC) supplemented with 10% fetal bovine serum (ATCC). bEND 3 cells are seeded onto the luminal side of a filter (0.4 μm pore size; Corning, Lowell, MCA) coated with fibronectin (5 μg/ml) in 12-well plates for a transendothelial electrical resistance (TEER) test; and in 100-mm dishes for Western blot studies. Cell cultures are incubated at 37° C. in a 5%/95% mixture of CO2 and atmospheric air, and the medium is replaced every 3 days.
# The electrical resistance across the membrane are measured using an Millicell ERS Voltohmmeter (Millipore, Billerica, Mass.). The extracellular matrix-treated Transwell inserts are placed in 12-well plates containing culture medium and then used to measure the background resistance. The resistance measurements of these blank filters are then subtracted from those of filters with cells. Values are shown as Q. based on culture inserts.
# To mimic ischemia-like conditions in vitro, immortalized mouse brain endothelial (bEND3) cells were exposed to 6 hours of hypoxia and 3 hours of reoxygeneation with or without the administration of tPA at a dose of 20 μ/ml. Reoxygenation was initiated by adding glucose (4.5 g/L)-containing phenol red-free DMEM for 3 hours at 37° C. in 95% air and 5% CO2. The cells were treated with various concentrations progesterone for 24 hours before hypoxia/reperfusion (H/R). BBB integrity was evaluated by transendothelial membrane electrical resistance (TEER) measurement, MMP-9 activity, and the alteration of tight junction proteins following in vitro H/R injury.
# occludin = experiment: Occludin in H/R-treated bEND3 cells (Western blot, immunofluorescence); type: cell-based, mouse
# Method: as §1
# Peri-infarct cortical tissue is processed for protein analysis. Tissues are homogenized in T-per (Pierce, Rockford, Ill.) containing protease inhibitor cocktail (P8340, Sigma). Homogenates are centrifuged for 15 minutes at 13,000 g. 40 μg of total protein is separated on 8-12% gel and transferred onto polyvinylidene difluoride (Millipore, Mass., USA; PVDF) membranes at 300 mA for 2 hours. To measure the level of immunoglobulin, the membranes were incubated overnight at 4° C. with anti Rat IgG conjugated to biotin. bEND 3 cells are subjected to hypoxia/reperfusion for 9 hours and then lysed on ice in 100 μl of RIPA buffer. Cell lysated are boiled and then electrophoresed in 12% SDS-PAGE acrylamide gels, transferred onto PVDF membranes, and incubated for 1 hour in TBS-T (tris-buffered saline and 0.1% Tween 20) containing 5% bovine serum albumin (BSA). Membranes are then incubated overnight at 4° C. with primary antibodies against occludin (Invitrogen, Calif., USA; 1:1000), claudin-5 (Invitrogen; 1:1000), and ZO-1 (Invitrogen; 1:1000), washed in TBS-T, and incubated for 1 hour at room temperature with corresponding peroxidase-conjugated secondary antibodies (1:5000; KPL, Gaithersburg, Md.). All blots are stripped and re-incubated with β-actin antibodies (1:5000, Sigma) as a loading control. The peroxidase reaction is developed with an ECL-plus detection kit (Amersham BioScience, Piscataway, N.J.). Intensity of the bands is measured by an Image Gauge version. 4.0 program (FUJI Photo Film Co., Ltd).
# The bEnd 3 cells grown to confluence on coverslips are subjected to the indicated treatments. […]
# (§2) To mimic ischemia-like conditions in vitro, immortalized mouse brain endothelial (bEND3) cells were exposed to 6 hours of hypoxia and 3 hours of reoxygeneation with or without the administration of tPA at a dose of 20 μ/ml. […] BBB integrity was evaluated by transendothelial membrane electrical resistance (TEER) measurement, MMP-9 activity, and the alteration of tight junction proteins following in vitro H/R injury.
# claudin-5 [2] = experiment: Claudin-5 in H/R-treated bEND3 cells (Western blot); type: cell-based, mouse; conditions: tPA with H/R
# Method: as §1
# Peri-infarct cortical tissue is processed for protein analysis. Tissues are homogenized in T-per (Pierce, Rockford, Ill.) containing protease inhibitor cocktail (P8340, Sigma). Homogenates are centrifuged for 15 minutes at 13,000 g. […] Intensity of the bands is measured by an Image Gauge version. […]
# as §2
# [3] = test system: rats with MCAO induced by homologous blood clots; experiment: Delayed tPA to cause hemorrhage: embolic MCAO model of hemorrhagic transformation; type: in vivo, rat; conditions: recombinant tPA 10 mg/kg through the tail vein at 4.5 hours post MCAO-induction
# Excerpt: A focal thromboembolic model of cerebral ischemia is induced in rats by middle cerebral artery occlusion (MCAO) via the fibrin-rich clots technique under isoflurane anesthesia. Surgical anesthesia is induced with isoflurane (5% induction, 2% maintenance, […]). Rats are cannulated with a femoral artery catheter for measurement of arterial blood gases, pH (Ciba-Corning 248 pH/blood gas analyzer), blood glucose, hematocrit and mean arterial blood pressure. The body temperature of the animals is maintained at […] with a heating pad controlled by rectal thermistors. A closed cranial window is made in the right parietal skull (2 mm posterior, 6 mm lateral to bregma) for laser doppler probe placement. The rats are mounted on a modified stereotaxic frame equipped with a facemask. The right common carotid artery (CCA), the right internal carotid artery (ICA) and the right external carotid artery (ECA) are exposed by a ventral incision in throat. After surgical preparation of the right CCA and ligation of the pterygo-palatine artery, a PE10 catheter is inserted into the ECA. The tip of the catheter is placed close to the carotid bifurcation. To achieve thromboembolic occlusion of the right middle cerebral artery, 12 medium-sized fibrin rich clots suspended in phosphate with phosphate buffered saline (0.3 ml) are injected by a 1 ml syringe connected to the catheter. […]
# [4] = test system: blood-brain barrier (BBB); experiment: BBB disruption: serum IgG in ischemic cortex by Western blot; type: in vivo, rat; conditions: 24 hours after ischemic injury and tPA treatment
substance,measurement,setting,value
"tPA: serum protease acting specifically on serum plasminogen; also known as alteplase, available commercially as Activase",Lower molecular weight 17-kDa claudin-5 fragments,claudin-5 [1],increase
same,TEER under H/R conditions,bEND3 cells,significantly decreased
same,Detected levels of occludin (immunofluorescence),"occludin; bEND3 cells exposed to H/R and tPA for 9 hours, progesterone pretreatment",reduced
same,Expression of occludin (Western blot),"occludin; bEND3 cells, tPA with H/R",markedly decreased
same,Expression of 23-kDa claudin-5 (Western blot),claudin-5 [2],markedly decreased
same,Hemispheric enlargement and hemorrhage,[3],significant hemispheric enlargement and hemorrhage
same,Increase of IgG levels in ischemic cortex,[4],up to 2 ×
